Laboratory results: ChEMBL document CHEMBL5120836, “Discovery of novel 7,8-dihydropteridine-6(5H)-one-based DNA-PK inhibitors as potential anticancer agents via scaffold hopping strategy” (Eur J Med Chem, 2022)
Converted amounts (≈) assume the structure as drawn. The source made the active and inactive calls. The rule behind the calls is not given here.

Columns and labels:
HL-60 [1] = assay: Synergistic antitumor activity against human HL-60 cells xenografted in BALB/c nude mouse assessed as tumor weight at 100 mg/kg, po qd for 16 days co-administered with doxorubicin (reference value: 27.9%); type: functional; conditions: HL-60, 384 h, time 16 day
MCF7 [2] = assay: Synergistic antiproliferative activity against human MCF7 cells assessed as combination index at 1 uM in presence of 0.1 uM doxorubicin by MTT assay; type: functional
[3] = Toxicity in BALB/c nude mouse xenografted with human HL-60 cells assessed as liver morphological alterations at 100 mg/kg, po qd for 16 days by Hematoxylin and Eosin staining based analysis; type: organism-based; conditions: in vivo, 384 h, time 16 day
[4] = Kinetic solubility of the compound in phosphate-buffered solution at pH 7.4 incubated for 24 hrs by HPLC-MS/MS analysis; type: physicochemical; conditions: phosphate buffer, read-out: Kinetic_solubility
MDA-MB-231 [5] = assay: Synergistic antiproliferative activity against human MDA-MB-231 cells assessed as combination index at 100 uM in presence of 0.1 uM doxorubicin by MTT assay; type: functional
[6] = Toxicity in BALB/c nude mouse xenografted with human HL-60 cells assessed as RDW-CV level at 100 mg/kg, po qd for 16 days (reference value: 14.25%); type: organism-based; conditions: in vivo, 384 h, time 16 day
[7] = Toxicity in BALB/c nude mouse xenografted with human HL-60 cells assessed as MCHC level at 100 mg/kg, po qd for 16 days (reference value: 246 g/L); type: organism-based; conditions: in vivo, 384 h, time 16 day
HCT-116 [8] = assay: Induction of apoptosis in human HCT-116 cells assessed as necrotic cells at 1 uM incubated for 24 hrs by AnnexinV-FITC/PI staining based flow cytometry (reference value: 0.031%); type: functional
MCF7 [9] = assay: Synergistic antiproliferative activity against human MCF7 cells assessed as combination index at 25 uM in presence of 0.1 uM doxorubicin by MTT assay; type: functional
[10] = Kinetic solubility of the compound in phosphate-buffered solution at pH 6.4 incubated for 24 hrs by HPLC-MS/MS analysis; type: physicochemical; conditions: phosphate buffer, read-out: Kinetic_solubility
[11] = Toxicity in BALB/c nude mouse xenografted with human HL-60 cells assessed as HGB level at 100 mg/kg, po qd for 16 days (reference value: 156 g/L); type: organism-based; conditions: in vivo, 384 h, time 16 day
[12] = Toxicity in BALB/c nude mouse xenografted with human HL-60 cells assessed as PCT level at 100 mg/kg, po qd for 16 days (reference value: 0.7%); type: organism-based; conditions: in vivo, 384 h, time 16 day
[13] = molecular target: Phosphatidylinositol 4,5-bisphosphate 3-kinase catalytic subunit beta isoform (Homo sapiens, UniProt P42338); assay: Inhibition of human PI3Kbeta by ADP-Glo assay; type: toxicity
Sequence of Phosphatidylinositol 4,5-bisphosphate 3-kinase catalytic subunit beta isoform (P42338 whole entry, canonical isoform): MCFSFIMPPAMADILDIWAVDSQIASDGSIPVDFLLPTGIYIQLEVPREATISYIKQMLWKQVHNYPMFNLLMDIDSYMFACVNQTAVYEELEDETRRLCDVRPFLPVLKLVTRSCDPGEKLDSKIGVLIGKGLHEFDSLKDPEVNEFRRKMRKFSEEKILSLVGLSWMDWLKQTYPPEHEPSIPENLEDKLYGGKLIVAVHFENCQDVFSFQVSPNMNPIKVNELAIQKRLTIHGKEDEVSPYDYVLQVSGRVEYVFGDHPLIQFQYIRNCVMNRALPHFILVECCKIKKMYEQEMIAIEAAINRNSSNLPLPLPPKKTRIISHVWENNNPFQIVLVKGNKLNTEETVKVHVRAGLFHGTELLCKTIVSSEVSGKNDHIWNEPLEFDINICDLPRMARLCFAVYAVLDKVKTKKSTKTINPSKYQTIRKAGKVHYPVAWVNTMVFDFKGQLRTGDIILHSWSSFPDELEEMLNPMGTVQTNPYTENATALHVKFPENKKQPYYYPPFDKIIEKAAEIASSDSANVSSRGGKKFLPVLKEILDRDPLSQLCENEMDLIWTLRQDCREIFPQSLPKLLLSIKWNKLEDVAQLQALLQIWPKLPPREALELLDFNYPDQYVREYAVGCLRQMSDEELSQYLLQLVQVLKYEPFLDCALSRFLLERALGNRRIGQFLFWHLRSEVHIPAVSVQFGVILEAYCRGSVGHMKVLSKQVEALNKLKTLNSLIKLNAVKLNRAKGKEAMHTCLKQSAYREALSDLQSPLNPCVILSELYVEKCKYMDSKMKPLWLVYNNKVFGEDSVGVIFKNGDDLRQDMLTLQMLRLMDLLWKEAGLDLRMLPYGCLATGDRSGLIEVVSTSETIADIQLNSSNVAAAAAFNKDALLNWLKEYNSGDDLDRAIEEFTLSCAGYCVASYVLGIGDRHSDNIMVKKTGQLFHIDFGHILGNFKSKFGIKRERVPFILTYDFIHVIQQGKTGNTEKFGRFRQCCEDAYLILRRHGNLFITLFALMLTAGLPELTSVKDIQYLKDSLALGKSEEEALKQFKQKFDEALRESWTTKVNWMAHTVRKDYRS

MDA-MB-231 [14] = assay: Synergistic antiproliferative activity against human MDA-MB-231 cells assessed as combination index at 3.1 uM in presence of 0.1 uM doxorubicin by MTT assay; type: functional
[15] = MRT (0 to infinity) in Sprague-Dawley rat at 5 mg/kg, po; type: ADME, organism-based; conditions: in vivo
MCF7 [16] = assay: Synergistic antiproliferative activity against human MCF7 cells assessed as combination index at 100 uM in presence of 0.1 uM doxorubicin by MTT assay; type: functional
[17] = Cmax in Sprague-Dawley rat at 5 mg/kg, po; type: ADME, organism-based; design: dose 5 mg/kg, route po; conditions: in vivo
MDA-MB-231 [18] = assay: Additive antiproliferative activity against human MDA-MB-231 cells assessed as combination index at 200 uM in presence of 0.1 uM doxorubicin by MTT assay; type: functional
MDA-MB-231 [19] = assay: Synergistic antiproliferative activity against human MDA-MB-231 cells assessed as inhibition of cell growth in presence of 100 nM doxorubicin by MTT assay; type: functional, cell-based
MDA-MB-231 [20] = assay: Synergistic antiproliferative activity against human MDA-MB-231 cells assessed as combination index at 1 uM in presence of 0.1 uM doxorubicin by MTT assay; type: functional
[21] = Plasma protein binding in rat assessed as free fraction; type: ADME, cell-free
MDA-MB-231 [22] = assay: Synergistic antiproliferative activity against human MDA-MB-231 cells assessed as combination index at 50 uM in presence of 0.1 uM doxorubicin by MTT assay; type: functional
[23] = Toxicity in BALB/c nude mouse xenografted with human HL-60 cells assessed as serum monocytes content at 100 mg/kg, po qd for 16 days (reference value: 0.5X10^9/L); type: organism-based; conditions: in vivo, 384 h, time 16 day
[24] = Toxicity in BALB/c nude mouse xenografted with human HL-60 cells assessed as HCT level at 100 mg/kg, po qd for 16 days (reference value: 66.3%); type: organism-based; conditions: in vivo, 384 h, time 16 day
HepG2 = assay: Synergistic antiproliferative activity against Doxorubicin-resistant human HepG2 cells assessed as combination index at 100 uM in presence of 0.1 uM doxorubicin by MTT assay; type: functional
MCF7 [25] = assay: Synergistic antiproliferative activity against human MCF7 cells assessed as combination index at 3.1 uM in presence of 0.1 uM doxorubicin by MTT assay; type: functional
HL-60 [26] = assay: Synergistic antitumor activity against human HL-60 cells xenografted in BALB/c nude mouse assessed as tumor volume at 100 mg/kg, po qd for 16 days co-administered with doxorubicin (reference value: 32.2%); type: functional; conditions: HL-60, 384 h, time 16 day
HCT-116 [27] = assay: Inhibition of colony formation in human HCT-116 cells at 1 uM in presence of 100 nM doxorubicin; type: functional, cell-based
[28] = Toxicity in BALB/c nude mouse xenografted with human HL-60 cells assessed as RDW-SD level at 100 mg/kg, po qd for 16 days (reference value: 34 fL); type: organism-based; conditions: in vivo, 384 h, time 16 day
HCT-116 [29] = assay: Induction of apoptosis in human HCT-116 cells assessed as viable cells at 1 uM incubated for 24 hrs in presence of 100 nM doxorubicin by AnnexinV-FITC/PI staining based flow cytometry (reference value: 93.9%); type: functional; conditions: read-out: Activity
MCF7 [30] = assay: Synergistic antiproliferative activity against human MCF7 cells assessed as combination index at 0.1 uM in presence of 0.1 uM doxorubicin by MTT assay; type: functional
HCT-116 [31] = assay: Induction of apoptosis in human HCT-116 cells assessed as late apoptotic cells at 1 uM incubated for 24 hrs in presence of 100 nM doxorubicin by AnnexinV-FITC/PI staining based flow cytometry (reference value: 3.07%); type: functional
[32] = Half life in rat liver microsomes; type: ADME, Microsome
HCT-116 [33] = assay: Disruption of mitochondrial function in human HCT-116 cells assessed as decrease in mitochondrial membrane potential by measuring proportion of cells with green fluorescence at 1 uM incubated for 24 hrs by JC-1 staining based flow cytometry (reference value: 0.566%); type: functional; design: scale not given: the % may be the effect or the level left
HCT-116 [34] = assay: Synergistic antiproliferative activity against human HCT-116 cells assessed as combination index at 100 uM incubated for 48 hrs in presence of 0.1 to 50 uM doxorubicin by MTT assay; type: functional
MCF7 [35] = assay: Synergistic antiproliferative activity against human MCF7 cells assessed as combination index at 0.5 uM in presence of 0.1 uM doxorubicin by MTT assay; type: functional
[36] = Toxicity in BALB/c nude mouse xenografted with human HL-60 cells assessed as MCH level at 100 mg/kg, po qd for 16 days (reference value: 14.1 pg); type: organism-based; conditions: in vivo, 384 h, time 16 day

Question: Which inhibition in vivo at 100 mg/kg (HL-60 [1]) does the source give for Cc1cc2ncnn2cc1Nc1ncc2c(n1)N(C1CCOCC1)CC(=O)N2C here?
Answer: Its inhibition in vivo at 100 mg/kg is 52.4%.

Question: What about the CI (MCF7 [2]) of the same compound?
Answer: Its CI is 0.03832.

Question: And the Activity [3]?
Answer: The Activity was “Non-Toxic”.

Question: What about the solubility kinetic at 24 h [4] of the same compound?
Answer: The solubility kinetic at 24 h was 80 µg/mL (≈ 203 µM).

Question: What about the CI (MDA-MB-231 [5]) of the same compound?
Answer: The CI was 0.9806.

Question: And the Activity [6]?
Answer: Its Activity is 15%.

Question: And the Activity [7]?
Answer: Its Activity is 249 g/L.

Question: What about the Activity (HCT-116 [8]) of the same compound?
Answer: The Activity was 0.015%.

Question: What about the CI (MCF7 [9]) of the same compound?
Answer: The CI was 0.06966.

Question: And the solubility kinetic at 24 h [10]?
Answer: The solubility kinetic at 24 h was 72.2 µg/mL (≈ 183 µM).

Question: What about the Activity [11] of the same compound?
Answer: The Activity was 148 g/L.

Question: And the Activity [12]?
Answer: Its Activity is 0.641%.

Question: And the IC50 [13]?
Answer: Its IC50 is 830 nM.

Question: And the CI (MDA-MB-231 [14])?
Answer: Its CI is 0.3259.

Question: What about the MRT inf [15] of the same compound?
Answer: The MRT inf was 2.29 h.

Question: What about the CI (MCF7 [16]) of the same compound?
Answer: Its CI is 0.2764.

Question: What about the Cmax [17] of the same compound?
Answer: Its Cmax is 810 ng/mL.

Question: What about the CI (MDA-MB-231 [18]) of the same compound?
Answer: Its CI is 1.006.

Question: What about the Activity (MDA-MB-231 [19]) of the same compound?
Answer: The Activity was “Active”.

Question: What about the CI (MDA-MB-231 [20]) of the same compound?
Answer: The CI was 0.2676.

Question: And the fraction unbound [21]?
Answer: Its fraction unbound is 0.667.

Question: And the CI (MDA-MB-231 [22])?
Answer: Its CI is 0.705.

Question: What about the Activity [23] of the same compound?
Answer: The Activity was 0.51 10^9/L.

Question: What about the Activity [24] of the same compound?
Answer: The Activity was 65.1%.

Question: What about the CI (HepG2) of the same compound?
Answer: The CI was 0.1244.

Question: And the CI (MCF7 [25])?
Answer: The CI was 0.05143.

Question: And the inhibition in vivo at 100 mg/kg (HL-60 [26])?
Answer: The inhibition in vivo at 100 mg/kg was 62.4%.

Question: And the inhibition (HCT-116 [27])?
Answer: The inhibition was “Active”.

Question: What about the Activity [28] of the same compound?
Answer: Its Activity is 36 fL.

Question: What about the viability at 1 µM (HCT-116 [29]) of the same compound?
Answer: Its viability at 1 µM is 79.1%.

Question: And the CI (MCF7 [30])?
Answer: The CI was 0.2844.

Question: And the Activity (HCT-116 [31])?
Answer: The Activity was 7.51%.

Question: And the half-life [32]?
Answer: The half-life was over 2.42 h.

Question: What about the Activity (HCT-116 [33]) of the same compound?
Answer: The Activity was 3.55%.

Question: And the CI (HCT-116 [34])?
Answer: Its CI is under 0.1.

Question: And the CI (MCF7 [35])?
Answer: Its CI is 0.04646.

Question: What about the Activity [36] of the same compound?
Answer: The Activity was 14.2 pg.
